Reference: US11524966B1 (Valo Early Discovery, Inc., priority 2017, dated 2022)

molecular target: T1, USP28 (His-tagged USP28-FL-mammalian) (Homo sapiens, UniProt Q96RU2); assay: Ubiquitin-Rhodamine 110 Assay for USP28 Activity, Example A-1(a); assay type: biochemical; details: Ubiquitin-Rhodamine 110 assay, Example A-1(a); read-out: USP28 A-1(a) IC50 range
T1 construct: Expression of USP28 (1-1077)-TEV-6*His (pTT5 vector); made in house; host or cells: Expi293f cells (pTT5 vector)
T1 sequence (Q96RU2 1-1077): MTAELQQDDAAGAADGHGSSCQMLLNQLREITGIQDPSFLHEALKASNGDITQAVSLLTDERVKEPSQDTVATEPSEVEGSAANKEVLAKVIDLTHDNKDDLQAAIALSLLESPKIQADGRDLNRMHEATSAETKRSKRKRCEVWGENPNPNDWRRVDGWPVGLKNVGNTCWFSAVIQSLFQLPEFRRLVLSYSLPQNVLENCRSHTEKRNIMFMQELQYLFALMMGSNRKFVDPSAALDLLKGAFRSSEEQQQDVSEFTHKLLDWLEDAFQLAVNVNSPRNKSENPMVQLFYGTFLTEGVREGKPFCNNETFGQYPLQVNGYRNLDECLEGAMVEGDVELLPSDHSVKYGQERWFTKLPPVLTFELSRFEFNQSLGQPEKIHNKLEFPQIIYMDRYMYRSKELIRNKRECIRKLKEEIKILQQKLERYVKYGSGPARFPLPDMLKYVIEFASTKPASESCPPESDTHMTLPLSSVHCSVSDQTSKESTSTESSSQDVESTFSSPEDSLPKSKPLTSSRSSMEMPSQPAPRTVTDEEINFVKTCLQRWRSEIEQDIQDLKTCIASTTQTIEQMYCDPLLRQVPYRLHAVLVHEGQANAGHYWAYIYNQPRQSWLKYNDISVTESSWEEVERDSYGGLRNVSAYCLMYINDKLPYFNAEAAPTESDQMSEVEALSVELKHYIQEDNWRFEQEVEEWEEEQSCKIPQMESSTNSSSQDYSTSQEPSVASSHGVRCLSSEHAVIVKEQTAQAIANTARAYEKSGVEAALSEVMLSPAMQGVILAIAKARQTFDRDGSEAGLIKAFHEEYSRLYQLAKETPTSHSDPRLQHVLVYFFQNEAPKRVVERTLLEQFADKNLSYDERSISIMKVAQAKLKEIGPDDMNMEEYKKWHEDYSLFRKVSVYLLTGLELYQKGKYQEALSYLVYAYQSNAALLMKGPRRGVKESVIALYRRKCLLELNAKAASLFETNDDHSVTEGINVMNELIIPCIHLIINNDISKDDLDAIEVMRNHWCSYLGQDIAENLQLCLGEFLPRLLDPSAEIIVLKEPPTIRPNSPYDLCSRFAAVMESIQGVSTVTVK
Procedure, shortened: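 Full-length His-tagged human USP28 (1-1077, Expi293f-expressed), […], with 25 nM Ub-Rh110 (<<Km) in pH 8.0 Tris buffer with BME, BGG, Triton X-100. 10-point dilutions (25 μM-1.3 nM), 45 min at room temperature, citric acid stop, fluorescence 485/535 nm; IC50 by 4-parameter fit.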

Row | SMILES | IC50 [nM]
1 | Cc1ccc2c(N)c(C(=O)N[C@H]3COc4cc(N5CC6CNC[C@](C)(C5)O6)cc(F)c4C3)sc2n1 [Example 413, 3-amino-N-[(3R)-5-fluoro-7-[(1R)-1-methyl-9-oxa-3,7-diazabicyclo[3.3.1]nonan-3-yl]-3,4-dihydro-2H-1-benzopyran-3-yl]-6-methylthieno[2,3-b]pyridine-2-carboxamide] | 1 to 50
2 | Cc1ccc2c(N)c(C(=O)N[C@H]3COc4cc(N5CC6CNC[C@@](C)(C5)O6)cc(F)c4C3)sc2n1 [Example 414, 3-amino-N-[(3R)-5-fluoro-7-[(1S)-1-methyl-9-oxa-3,7-diazabicyclo[3.3.1]nonan-3-yl]-3,4-dihydro-2H-1-benzopyran-3-yl]-6-methylthieno[2,3-b]pyridine-2-carboxamide] | 50 to 200
3 | CO[C@@H]1CN(c2cc3c(c(F)c2F)C[C@@H](NC(=O)c2sc4nc(C)ccc4c2N)CO3)C[C@H]1N [Example 415, 3-amino-N-[(3R)-7-[(3R,4R)-3-amino-4-methoxypyrrolidin-1-yl]-5,6-difluoro-3,4-dihydro-2H-1-benzopyran-3-yl]-6-methylthieno[2,3-b]pyridine-2-carboxamide] | 1 to 50
4 | CO[C@H]1CN(c2cc3c(c(F)c2F)C[C@@H](NC(=O)c2sc4nc(C)ccc4c2N)CO3)C[C@@H]1N [Example 416, 3-amino-N-[(3R)-7-[(3S,4S)-3-amino-4-methoxpyrrolidin-1-yl]-5,6-difluoro-3,4-dihydro-2H-1-benzopyran-3-yl]-6-methylthieno[2,3-b]pyridine-2-carboxamide] | 1 to 50
5 | Cc1ccc2c(N)c(C(=O)N[C@H]3CCc4cc(N5CCNCC5)c(F)c(F)c4C3)sc2n1 [Example 417, 3-amino-N-[(2S)-7,8-difluoro-6-(piperazin-1-yl)-1,2,3,4-tetrahydronaphthalen-2-yl]-6-methylthieno[2,3-b]pyridine-2-carboxamide] | 200 to 2000
6 | Cc1ccc2c(N)c(C(=O)N[C@@H]3CCc4cc(N5CCNCC5)c(F)c(F)c4C3)sc2n1 [Example 418, 3-amino-N-[(2R)-7,8-difluoro-6-(piperazin-1-yl)-1,2,3,4-tetrahydronaphthalen-2-yl]-6-methylthieno[2,3-b]pyridine-2-carboxamide] | 50 to 200
7 | Cc1cnc2c(N)c(C(=O)N[C@H]3CCc4cc(N5CC6CNCC(C5)O6)ccc4C3)sc2n1 [Example 448, N-((2S)-6-(9-oxa-3,7-diazabicyclo[3.3.1]nonan-3-yl)-1,2,3,4-tetrahydronaphthalen-2-yl)-7-amino-3-methylthieno[2,3-b]pyrazine-6-carboxamide] | 1 to 50
8 | Cc1cnc2c(N)c(C(=O)N[C@@H]3CCc4cc(N5CC6CNCC(C5)O6)ccc4C3)sc2n1 [Example 450, N-((2R)-6-(9-oxa-3,7-diazabicyclo[3.3.1]nonan-3-yl)-1,2,3,4-tetrahydronaphthalen-2-yl)-7-amino-3-methylthieno[2,3-b]pyrazine-6-carboxamide] | 200 to 2000
9 | Cc1ccc2c(N)c(C(=O)N[C@@H]3CCc4cc(N5CC6CNCC(C5)O6)ccc4C3)sc2n1 [Example 451, N-((2R)-6-(9-oxa-3,7-diazabicyclo[3.3.1]nonan-3-yl)-1,2,3,4-tetrahydronaphthalen-2-yl)-3-amino-6-methylthieno[2,3-b]pyridine-2-carboxamide] | 50 to 200
10 | Cc1cnc2c(N)c(C(=O)N[C@@H]3CCc4cc(N5CCCNCC5)ccc4C3)sc2n1 [Example 452, (R)-N-(6-(1,4-diazepan-1-yl)-1,2,3,4-tetrahydronaphthalen-2-yl)-7-amino-3-methylthieno[2,3-b]pyrazine-6-carboxamide] | 200 to 2000
11 | Cc1cnc2c(N)c(C(=O)N[C@H]3CCc4cc(N5CCCNCC5)ccc4C3)sc2n1 [Example 455, (S)-N-(6-(1,4-diazepan-1-yl)-1,2,3,4-tetrahydronaphthalen-2-yl)-7-amino-3-methylthieno[2,3-b]pyrazine-6-carboxamide] | 50 to 200
